Laboratory results as given in patent US8796249B2, “TGR5 modulators and methods of use thereof” (Intercept Pharmaceuticals, Inc., priority 2008, dated 2014).
Structures can show the parent of a compound that is named as a salt.

Experiments:
[1] = system: pancreatic esterases; assay: In vitro metabolic stability in simulated duodenal/pancreatic fluid; format: in vitro ADME, porcine
Experimental: This study has been performed for 2A since it contains an ester bond in the side chain and the aim was to verify the stability in presence of esterase enzymes like present in duodenal and pancreatic juice. Simulated pancreatic fluid was prepared by dissolving 10 g/L Pancreatin (Sigma P8096: pancreatin from porcine pancreas, activity 1× USP specifications) in 0.05M phosphate buffer, pH=7.2±0.1. Then, 4-mL aliquots of the simulated pancreatic fluid were added of […] of the studied BA and incubated for different times (0, 30, 60, 90, 120, 180 and 240 min) at 37° C. After incubation, a 2-mL aliquot of each solution was added with 2 mL of 0.1M NaOH and subjected to bile acids extraction by SPE and analysis by thin-layer chromatography and mass spectrometry as described above. […] Olive oil was used as a reference as reported in the USP protocol.

[2] = Biliary secretion, bile flow and metabolism in bile-fistula rat after duodenal (id) and femoral (iv) infusion; format: in vivo; details: for choleretic effect (bile flow): bile fistula rat
Experimental: To evaluate the mode and efficiency of the intestinal absorption the analogues were administered both intravenously (femoral infusion) and orally (duodenal infusion) at the same dose and their biliary secretion rate was evaluated in bile fistula rat model. The differences in the area under the curve of the biliary secretion vs time between iv and id administration account of its intestinal absorption and give information about its biovailability.
The bile fistula rat model was developed at the University of Bologna Lab facilities. The compound 3A was administered at a dose of 1 μmol/kg/min (1 hour infusion) to a rat group via duodenal infusion (id). Rat have a bile fistula to collect bile samples at different times before and during the infusion. For duodenal infusion experiment 3 rats (250±10 g) were treated. Bile samples were collected every 15 minutes for four hours. In addition, 3 control rats were treated with saline solution under the same conditions for times and sampling (duodenal control rats).
Duodenal infusion starts after 30 min baseline bile collection and continues for one hour.
For femoral infusion experiment, 3 rats were treated. […] Femoral infusion starts after 75 minutes of steady-state and continues for 60 min. Bile samples were collected every 15 minutes for four hours. In addition, 3 rats were treated with saline solution under the same conditions for times and sampling (femoral control rats).
Rat bile samples were brought to room temperature, briefly stirred, and diluted 1:100 v/v (bile samples from duodenal orinfusion) and 1:100 or 1:200 v/v (bile samples from femoral infusion) with 15 mM ammonium acetate buffer (pH=5.0):acetonitrile=70:30 (v/v). Final solution was transferred in autosampler vials, and 10 μL was injected into the chromatographic column.
Bile rat samples were analyzed by liquid chromatography-tandem mass spectrometry (HPLC-MS/MS) using electrospray (ESI) source in negative ionization mode. For liquid chromatography a Waters Alliance 2695 separation module coupled with autosampler was used. Autosampler was maintained at 7° C. Separation was performed on a Synergi Hydro-RP C18 column (150×2.0 mm i.d., 4 μm particle size), protected by a SecurityGuard ODS 4×2.0 mm i.d. precolumn, both supplied from Phenomenex. […]. Nitrogen was used as nebulizer gas at 90 L/h flow rate and as desolvation gas at 930 L/h. Ion source block and desolvation temperatures were set respectively to 80° C. and 180° C. Capillary voltage was 3.0 kV. MassLynx software version 4.0 was used for data acquisition and processing. In addition, using mass spectrometry both in single MS or tandem MS/MS configuration experiments were performed to identify metabolites.
A 5-point calibration curve was daily prepared and injected in duplicate. Calibration samples were obtained in the 0.1 to 25 μmol/L concentration range prepared in mobile phase. Linear calibration curve parameters were obtained from the plot of the analyte peak area versus analyte concentration using a least squares regression analysis (weight=1/x^2). Correlation coefficients were ≧0.989.
The data refer to the secretion rate of the analogues recovered in bile as such after duodenal and femoral infusion at a dose of 1 umol/Kg/min. Major and minor metabolites are reported later.
For a preliminary screening the search of the possible metabolites has been performed on the basis of the expected compounds according to previous experiments and data and to the structure and physicochemical properties of the studied analogues.

[3] = rat, duodenal infusion 1 umol/Kg/min 1 h, time 120 min
[4] = rat, duodenal infusion 1 umol/Kg/min 1 h, time 150 min
[5] = rat, duodenal infusion 1 umol/Kg/min 1 h, time 180 min
[6] = rat, duodenal infusion 1 umol/Kg/min 1 h, time 210 min
[7] = rat, duodenal infusion 1 umol/Kg/min 1 h, time 240 min
[8] = rat, duodenal infusion 1 umol/Kg/min 1 h, time 270 min
[9] = rat, duodenal infusion 1 umol/Kg/min 1 h, time 300 min
[10] = rat, femoral infusion 1 umol/Kg/min 1 h, time 90 min
[11] = rat, femoral infusion 1 umol/Kg/min 1 h, time 120 min
[12] = rat, femoral infusion 1 umol/Kg/min 1 h, time 150 min
[13] = rat, femoral infusion 1 umol/Kg/min 1 h, time 180 min
[14] = rat, femoral infusion 1 umol/Kg/min 1 h, time 210 min
[15] = rat, femoral infusion 1 umol/Kg/min 1 h, time 240 min

CCC1C(O)C2C3CCC(C(C)CC(C)OS(=O)(=O)O)C3(C)CCC2C2(C)CCC(O)CC12 [Compound 2A, 3α,7α,23-trihydroxy-6α-ethyl-23(S)-methyl-24-nor-5β-cholan-23-sulfate Sodium Salt]
metabolic stability in simulated pancreatic fluid ([1]; 10 g/L pancreatin, pH 7.2, 37° C., up to 240 min): very stable | hydrolysis of ester bond (sulphate) by pancreatic esterases ([1]; simulated pancreatic fluid): not hydrolyzed

CC[C@H]1[C@@H](O)[C@@H]2[C@H](C[C@H](O)[C@]3(C)[C@@H]([C@H](C)CCCS(=O)(=O)[O-])CC[C@@H]23)[C@@]2(C)CC[C@@H](O)C[C@@H]12.[Na+] [Compound 3A, 3α,7α,12α-trihydroxy-6α-ethyl-5β-cholan-24-sulfonate Sodium Salt]
choleretic effect (bile flow) ([2]; duodenal infusion (id) 1 μmol/kg/min, 1 hour): moderate choleretic effect | choleretic effect (bile flow) ([2]; femoral infusion (iv), 60 min): moderate choleretic effect | hepatic and intestinal metabolism ([2]; bile-fistula rat, iv and id): not metabolized by the liver or by the intestine | intestinal absorption ([2]; rat, after id administration, recovery in bile much lower than after iv): poorly absorbed by the intestine | recovery in bile ([2]; rat, after iv administration): almost completely recovered in bile | Conc. in bile [2, 3]: 370 µM | Secretion (biliary) [2, 3]: 0.026 µmol/kg/min | Conc. in bile [2, 4]: 900 µM | Secretion (biliary) [2, 4]: 0.079 µmol/kg/min | Conc. in bile [2, 5]: 1300 µM | Secretion (biliary) [2, 5]: 0.101 µmol/kg/min | Conc. in bile [2, 6]: 950 µM | Secretion (biliary) [2, 6]: 0.061 µmol/kg/min | Conc. in bile [2, 7]: 700 µM | Secretion (biliary) [2, 7]: 0.043 µmol/kg/min | Conc. in bile [2, 8]: 580 µM | Secretion (biliary) [2, 8]: 0.039 µmol/kg/min | Conc. in bile [2, 9]: 510 µM | Secretion (biliary) [2, 9]: 0.029 µmol/kg/min | Conc. in bile [2, 10]: 2600 µM | Secretion (biliary) [2, 10]: 0.105 µmol/kg/min | Conc. in bile [2, 11]: 7300 µM | Secretion (biliary) [2, 11]: 0.588 µmol/kg/min | Conc. in bile [2, 12]: 7500 µM | Secretion (biliary) [2, 12]: 0.463 µmol/kg/min | Conc. in bile [2, 13]: 6200 µM | Secretion (biliary) [2, 13]: 0.363 µmol/kg/min | Conc. in bile [2, 14]: 3400 µM | Secretion (biliary) [2, 14]: 0.247 µmol/kg/min | Conc. in bile [2, 15]: 1000 µM | Secretion (biliary) [2, 15]: 0.045 µmol/kg/min
